Experimental data as given in patent publication EP1683515A2, “Bismuth-containing compounds in topical dosage forms” (Josman Laboratories, Inc., priority 1995, dated 1997).

Columns and labels:
H. Pylori [1] = details: as a single agent; cited from earlier work
Treponema denticola = experiment: In vitro MIC against halitosis bacteria; assay type: cell-based
Helicobacter pylori = experiment: In vitro MIC against halitosis bacteria; assay type: cell-based
Campylobacter rectus = experiment: In vitro MIC against halitosis bacteria; assay type: cell-based
rat mesentery culture = experiment: In vitro mesentery culture model, wound closure; assay type: cell-based; details: for concentrations of growth factors EGF and FGF: 10 mcg/mL to 1,000 mcg/mL in medium with 2% fetal calf serum; for wound closure rate: 10 mcg/mL to 1,000 mcg/mL, 24-hour, 48-hour and 72-hour, compared to the placebo
Source text: This tissue culture model is useful for gaining insights into growth factor interactions and wound healing.

[2] = Diabetic mouse wound healing model; assay type: in vivo; details: 10 mcg/mL to 1,000 mcg/mL; compared to placebo treated wound
Protocol: Further, wound healing potential of the above bismuth compounds is evaluated using a diabetic mouse wound healing model (Matuszewska et al., Pharmaceutical Research 11(1):65-71 (1994), incorporated herein by reference).

[3] = Freeze-injured skin graft model; assay type: in vivo; details: 10 to 1000 mcg/mL; compared to placebo
[4] = four hour exposure; 0.5% in artificial saliva; mild agitation
Source text: Artificial saliva was used (Table 9). Table 9 THECOMPOSITION OF ARTIFICIAL SALIVA
Table 10 DENTURE MATERIALS

H. Pylori [5] = details: against H. Pylori; cited from earlier work
[6] = of the 13 adverse reaction forms, 1978 to 1986; cited from earlier work

| Compound | eradication rate for H. Pylori (H. Pylori [1]) [%] | MIC (Treponema denticola) [mg/L] | MIC (Helicobacter pylori) [mg/L] | MIC (Campylobacter rectus) [mg/L] | concentrations of growth factors EGF and FGF (rat mesentery culture) | wound closure rate (rat mesentery culture) | wound healing [2] | wound healing in cryoinjured grafts [3] | staining, discoloration, or changes in texture of natural tooth and other denture materials [4] | MIC range (H. Pylori [5]) [mg/L] | minimum inhibitory concentration (MIC) (H. Pylori [5]) [mg/L] | adverse reactions ascribed to CBS [6] |
| --- | --- | --- | --- | --- | --- | --- | --- | --- | --- | --- | --- | --- |
| Cc1ncc([N+](=O)[O-])n1CCO [metronidazole] | 5 | – | – | – | – | – | – | – | – | – | – | – |
| Bismuth Sucrose Sulfate | – | 32 | 16 | > 256 | – | – | – | – | – | – | – | – |
| Bismuth Ascorbyl Sulfate | – | 16 | 8 | 256 | Significantly higher | significantly faster wound closure rate and complete closure | heal faster | stimulates wound healing in cryoinjured grafts in a dose-related fashion | – | – | – | – |
| colloidal bismuth subcitrate [CBS] | – | 32 | 2 | 256 | Significantly higher | significantly faster wound closure rate and complete closure | heal faster | stimulates wound healing in cryoinjured grafts in a dose-related fashion | did not cause any staining, discoloration, or changes in texture | 4 to 32 | 8 | Five |
